Converted amounts (≈) assume the structure as drawn. Blank lines part the entries; values can stand above or below the compound they belong to. The source made the active and inactive calls. The rule behind the calls is not given here.
Assays:
U-937 [1] = assay: Cytotoxicity against human U937 cells after 48 hrs; assay type: functional; conditions: U-937, 48 h
HepG2 [2] = assay: Cytotoxicity against human HepG2 cells after 48 hrs; assay type: functional; conditions: HepG2, 48 h
Jurkat [3] = assay: Cytotoxicity against human Jurkat cells after 48 hrs; assay type: functional
HeLa [4] = assay: Cytotoxicity against human HeLa S3 cells after 48 hrs; assay type: functional
RAW [5] = assay: Cytotoxicity against mouse RAW […] cells after 48 hrs; assay type: functional
Jurkat [6] = assay: Inhibition of TPA/ionomycin-stimulated human TNFalpha promoter expression in human Jurkat T cells by luciferase reporter gene assay; assay type: functional, cell-based
Jurkat [7] = assay: Inhibition of TPA/ionomycin-stimulated human TNFalpha promoter expression in human Jurkat T cells at 55 uM by luciferase reporter gene assay relative to control; assay type: functional; parameters: scale not given: the % may be the effect or the level left
[8] = Cytotoxicity against human COLO320 cells after 48 hrs; assay type: functional; conditions: COLO 320, 48 h
HL-60 = assay: Cytotoxicity against human HL60 cells after 48 hrs; assay type: functional; conditions: HL-60, 48 h
U-937 [9] = assay: Inhibition of TPA-stimulated TNFalpha production in human U937 cells; assay type: functional, cell-based
HeLa [10] = assay: Inhibition of IFN-alpha-stimulated GAS/ISRE gene promoter expression in human HeLa S3 cells by SEAP reporter gene assay; assay type: functional, cell-based
HepG2 [11] = assay: Inhibition of IL6-stimulated IL6 gene promoter expression in human HepG2 cells by SEAP reporter gene assay; assay type: functional, cell-based
[12] = target: Mitogen-activated protein kinase 3 (Homo sapiens) (UniProt P27361); assay: Inhibition of TPA/ionomycin-induced ERK1 phosphorylation in human Jurkat cells upto 10 ug/ml by Western blotting; assay type: cell-based
Mitogen-activated protein kinase 3 (Homo sapiens), sequence (P27361 whole entry): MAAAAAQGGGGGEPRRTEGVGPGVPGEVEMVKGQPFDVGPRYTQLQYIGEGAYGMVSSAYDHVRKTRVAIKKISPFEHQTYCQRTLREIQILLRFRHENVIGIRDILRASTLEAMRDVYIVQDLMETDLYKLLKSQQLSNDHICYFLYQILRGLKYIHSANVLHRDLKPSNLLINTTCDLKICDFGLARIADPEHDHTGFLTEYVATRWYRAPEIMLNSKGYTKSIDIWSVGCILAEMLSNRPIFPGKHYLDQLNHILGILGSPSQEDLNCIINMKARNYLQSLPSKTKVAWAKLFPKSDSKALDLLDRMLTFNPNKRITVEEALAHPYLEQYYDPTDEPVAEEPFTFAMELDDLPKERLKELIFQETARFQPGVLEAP

RAW [13] = assay: Inhibition of LPS/IFN-gamma-induced COX2 gene expression in mouse RAW 264.7 cells; assay type: functional, cell-based
Jurkat [14] = assay: Inhibition of TPA-stimulated NF-AT/AP1 gene promoter expression in human Jurkat cells by SEAP reporter gene assay; assay type: functional, cell-based
HeLa [15] = assay: Inhibition of TPA-stimulated AP1 gene promoter expression in human HeLa S3 cells by SEAP reporter gene assay; assay type: functional, cell-based
Jurkat [16] = assay: Inhibition of TPA-stimulated NF-kappaB gene promoter expression in human Jurkat cells by SEAP reporter gene assay; assay type: functional, cell-based
[17] = target: Mitogen-activated protein kinase 1 (Homo sapiens) (UniProt P28482); assay: Inhibition of TPA/ionomycin-induced ERK2 phosphorylation in human Jurkat cells upto 10 ug/ml by Western blotting; assay type: cell-based
Mitogen-activated protein kinase 1 (Homo sapiens), sequence (P28482 whole entry): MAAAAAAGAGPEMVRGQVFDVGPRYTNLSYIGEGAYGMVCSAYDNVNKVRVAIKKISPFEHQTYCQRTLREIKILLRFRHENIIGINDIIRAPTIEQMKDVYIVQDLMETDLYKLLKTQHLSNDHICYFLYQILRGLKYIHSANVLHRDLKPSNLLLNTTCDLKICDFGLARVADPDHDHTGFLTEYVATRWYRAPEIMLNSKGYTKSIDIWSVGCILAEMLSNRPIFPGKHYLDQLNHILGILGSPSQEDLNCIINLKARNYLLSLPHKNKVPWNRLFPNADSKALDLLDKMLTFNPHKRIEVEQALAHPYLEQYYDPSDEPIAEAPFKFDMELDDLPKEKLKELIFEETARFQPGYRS

RAW [18] = assay: Inhibition of LPS/IFN-gamma-induced iNOS gene expression in mouse RAW 264.7 cells; assay type: functional, cell-based
[19] = target: MAP kinase p38 (Homo sapiens) (UniProt O15264+Q15759+Q16539+P53778); assay: Inhibition of TPA/ionomycin-induced p38 kinase phosphorylation in human Jurkat cells upto 10 ug/ml by Western blotting; assay type: cell-based
Jurkat [20] = assay: Inhibition of TPA-stimulated COX2 gene promoter expression in human Jurkat cells by luciferase reporter gene assay; assay type: functional, cell-based

Structure (SMILES): CCOC(=O)/C=C1\NCCN1Cc1ccccc1
IC50 (U-937 [9]): 10 µg/mL

Structure (SMILES): CCCCCCCCCCCC(=O)[C@]1(O)C[C@H](C(=O)O)C(C(=O)OCC)=C2N(Cc3ccccc3)CCN21
CC50 (U-937 [1]): 10 µg/mL (≈ 18.9 µM) | CC90 (U-937 [1]): 25 µg/mL (≈ 47.3 µM) | CC50 (HepG2 [2]): > 50 µg/mL | CC50 (Jurkat [3]): 10 µg/mL (≈ 18.9 µM) | CC90 (Jurkat [3]): 50 µg/mL (≈ 94.6 µM) | CC50 (HeLa [4]): 25 µg/mL (≈ 47.3 µM) | CC50 (RAW [5]): 10 µg/mL (≈ 18.9 µM) | CC90 (RAW [5]): 50 µg/mL (≈ 94.6 µM) | IC50 (Jurkat [6]): 9.5 µM | CC50 [8]: 10 µg/mL (≈ 18.9 µM) | CC90 [8]: 50 µg/mL (≈ 94.6 µM) | CC50 (HL-60): 10 µg/mL (≈ 18.9 µM) | CC90 (HL-60): 50 µg/mL (≈ 94.6 µM)

Structure (SMILES): CCCCCCCCCCCC(=O)C(=O)/C=C/C(=O)O
Activity (Jurkat [6]): inactive

Continued, in another order:

IC50 (Jurkat [6]): 9.5 µM
Structure (SMILES): CCCCCCCCCCCC(=O)[C@]1(O)C[C@H](C(=O)OCC)C(C(=O)OCC)=C2N(Cc3ccccc3)CCN21
CC50 (U-937 [1]): 10 µg/mL (≈ 18 µM) | CC90 (U-937 [1]): 25 µg/mL (≈ 44.9 µM) | CC50 (HepG2 [2]): 50 µg/mL (≈ 89.8 µM) | CC50 (Jurkat [3]): 10 µg/mL (≈ 18 µM) | CC90 (Jurkat [3]): 50 µg/mL (≈ 89.8 µM) | CC50 (HeLa [4]): 10 µg/mL (≈ 18 µM) | CC90 (HeLa [4]): 50 µg/mL (≈ 89.8 µM) | CC50 (RAW [5]): 5 µg/mL (≈ 8.98 µM) | CC90 (RAW [5]): 25 µg/mL (≈ 44.9 µM) | Activity (Jurkat [7]): 25% | CC50 [8]: 10 µg/mL (≈ 18 µM) | CC90 [8]: > 50 µg/mL | CC50 (HL-60): 10 µg/mL (≈ 18 µM) | CC90 (HL-60): 25 µg/mL (≈ 44.9 µM)

IC50 (U-937 [9]): 4.6 µM | IC50 (HeLa [10]): 4.6 µM | IC50 (HepG2 [11]): 18.4 µM | Activity [12]: inactive | IC50 (Jurkat [14]): 4.6 µM | IC50 (HeLa [15]): 4.6 µM | IC50 (Jurkat [16]): 4.6 µM | IC50 (Jurkat [6]): 3.6 µM | Activity [17]: inactive | Activity [19]: inactive | IC50 (Jurkat [20]): 4.6 µM
Structure (SMILES): CCCCCCCCCCCC(=O)[C@]1(O)C[C@H](C(=O)OC)C(C(=O)OCC)=C2N(Cc3ccccc3)CCN21
CC50 (U-937 [1]): 10 µg/mL (≈ 18.4 µM) | CC90 (U-937 [1]): 25 µg/mL (≈ 46.1 µM) | CC50 (HepG2 [2]): 50 µg/mL (≈ 92.1 µM) | Activity (RAW [13]): inactive | CC50 (Jurkat [3]): 10 µg/mL (≈ 18.4 µM) | CC90 (Jurkat [3]): 50 µg/mL (≈ 92.1 µM) | CC50 (HeLa [4]): 10 µg/mL (≈ 18.4 µM) | CC90 (HeLa [4]): 25 µg/mL (≈ 46.1 µM) | CC50 (RAW [5]): 5 µg/mL (≈ 9.21 µM) | CC90 (RAW [5]): 25 µg/mL (≈ 46.1 µM) | Activity (RAW [18]): inactive | CC50 [8]: 10 µg/mL (≈ 18.4 µM) | CC90 [8]: 50 µg/mL (≈ 92.1 µM) | CC50 (HL-60): 10 µg/mL (≈ 18.4 µM) | CC90 (HL-60): 25 µg/mL (≈ 46.1 µM)

Reference: ChEMBL document CHEMBL1143128, “Imidazo[1,2-a]pyridine derivatives as inhibitors of TNF-alpha expression in T cells” (Bioorg Med Chem, 2008)
